{
  "source": "BindingDB's records for doi:10.1016/0960-894X(95)00287-4",
  "about": "(1995)",
  "key": {"[1]": {"test": "Inhibitory activity against Opioid receptor kappa1 binding to bovine striatal membrane"}, "[2]": {"test": "Inhibitory activity against Opioid receptor delta 1 binding to bovine striatal membrane"}},
  "data": [
    {"smiles": "C[C@@]12Oc3c(O)ccc4c3[C@@]13CCN(CC1CC1)[C@H](C4)[C@]3(NC(=O)CSSCC(=O)N[C@@]13CCC(=O)[C@]4(C)Oc5c(O)ccc6c5[C@@]41CCN(CC1CC1)[C@@H]3C6)CCC2=O", "values": [
      {"measurement": "IC50", "setting": "[1]", "value": 0.0077, "unit": "µM"},
      {"measurement": "IC50", "setting": "[2]", "value": 0.0053, "unit": "µM"}
    ]},
    {"smiles": "CN1CC[C@]23c4c5ccc(O)c4O[C@@]2(C)C(=O)CC[C@@]3(NC(=O)CSSCC(=O)N[C@@]23CCC(=O)[C@]4(C)Oc6c(O)ccc7c6[C@@]42CCN(C)C3C7)C1C5", "note": "[MET-TAMO and N-CPM-MET-TAMO analogue]", "values": [
      {"measurement": "IC50", "setting": "[1]", "value": 0.089, "unit": "µM"},
      {"measurement": "IC50", "setting": "[2]", "value": 0.052, "unit": "µM"}
    ]}
  ]
}
